According to patent US12507703B2, “Methods, devices and compositions for preserving human milk” (The Trustees of Princeton University, priority 2023, dated 2025):
“And” between values parts separate entries of the source, which are not always exact repeats. Identical values can stand only once.

Tested on: lipase
Assay: Lipase/lipolysis assay (EnzChek Lipase Substrate, quenched BODIPY-fatty acid conjugate) on stored human milk; note: test concentration or dose not given here

Compared with `CCCCC/C=C\C/C=C\CCCCCCCC(=O)O[C@H](COC(=O)CCCCCCCCCCCCCCCCC)COP(=O)([O-])OCC[N+](C)(C)C`, `O=C(O)CC(O)(C(=O)O)C(O)C(=O)O` (centres unmarked) is higher in “Lipase (RFU)” value: 1049.632 RFU for the first, 1053.487 RFU for the second.

Going from `C[S+](CC[C@H](N)C(=O)[O-])C[C@H]1O[C@@H](n2cnc3c(N)ncnc32)[C@H](O)[C@@H]1O.Cc1ccc(S(=O)(=O)O)cc1.O=S(=O)(O)O.O=S(=O)(O)O` (some centres unmarked) to `CCCCCCCCCCCCCC(=O)OC[C@H](COP(=O)(O)OCCN)OC(=O)CCCCCCCCCCCCC`, the “Lipase (RFU)” value rises from 726.0141 RFU to 805.4396 RFU.

Compared with 1,4-Dicaffeoylquinic acid, `Nc1nc(=O)c2c([nH]1)NCC(CNc1ccc(C(=O)N[C@@H](CCC(=O)O)C(=O)O)cc1)N2C=O` (mixture of isomers) [Folinic acid] is higher in “Lipase (RFU)” value: 794.8464 RFU for the first, 949.4803 RFU for the second.

First: O=C1O[C@H]2[C@@H]3OC(=O)c4cc(O)c(O)c(O)c4-c4c(O)c(O)c5oc(=O)c6c(c(O)c(O)c7oc(=O)c4c5c76)-c4c(cc(O)c(O)c4O)C(=O)OC[C@H]3OC(O)[C@@H]2OC(=O)c2cc(O)c(O)c(O)c2-c2c1cc(O)c(O)c2O (mixture of isomers) [Punicalagin]
Second: c1cncc([C@@H]2CCCCN2)c1 (racemic) [(±) Anabasine]
The “Lipase (RFU)” value of the first is lower: 646.9241 RFU for the first, 1022.058 RFU for the second.

Compared with `CCSCCC(N)C(=O)O` (racemic) [D,L-Ethionine], `NC(=O)CCCCC1CCSS1` (racemic) [D,L-Lipoamide] is higher in “Lipase (RFU)” value: 921.5463 RFU for the first, 1094.48 RFU for the second.

Going from `O=C(O)CC(O)C(=O)O` (racemic) [D,L-Malic Acid] to `NC(Cc1ccc(O)c(O)c1)C(=O)O` (racemic) [DL-Dopa], the “Lipase (RFU)” value rises from 781.9881 RFU to 819.29 RFU.

Compared with `CC1CCC(C(C)C)C(O)C1` (racemic) [DL-Menthol], `NC(COP(=O)(O)O)C(=O)O` (racemic) [DL-O-Phosphoserine] is lower in “Lipase (RFU)” value: 1275.242 RFU for the first, 728.85 RFU for the second.

Compared with `NC(Cc1ccccc1O)C(=O)O` (racemic) [DL-O-Tyrosine], `O=C(O)C(O)C(O)C(=O)O` (racemic) [DL-Tartaric acid] is higher in “Lipase (RFU)” value: 919.2122 RFU for the first, 1079.017 RFU for the second.

First: NC(Cc1c[nH]c2ccccc12)C(=O)O (racemic) [DL-Tryptophan]
Second: CC(=O)Oc1c(C)c(C)c2c(c1C)CCC(C)(CCCC(C)CCCC(C)CCCC(C)C)O2 (racemic) [DL-α-Tocopherol acetate]
The “Lipase (RFU)” value of the first is higher: 935.3545 RFU for the first, 697.673 RFU for the second.

First: Cc1cc(O)c(C)c2c1O[C@](C)(CCC[C@H](C)CCC[C@H](C)CCCC(C)C)CC2 (relative stereo) [(rel)-β-Tocopherol]
Second: CC1(C)CCCC2(C)OC(=O)C=C12 (single isomer, unassigned; (+)) [(+)-Dihydroactinidiolide]
The “Lipase (RFU)” value of the first is higher: 1146.301 RFU for the first, 951.3124 RFU for the second.

Compared with `COC1=CC(=O)OC(/C=C/c2ccccc2)C1` (single isomer, unassigned; (+)) [(+)-Kavain], `COc1cc([C@H]2OC[C@@H]3C(c4cc(OC)c(O)c(OC)c4)OC[C@H]23)ccc1O` (single isomer, unassigned; (+)) [(+)-Medioresinol] is higher in “Lipase (RFU)” value: 895.974 RFU for the first, 1166.732 RFU for the second.

Going from `COc1cc(C=CC(=O)O)cc(OC)c1O` (stereo in doubt) [Sinapinic acid] to `CC(O)CO` (centres unmarked) [1,2-Propanediol], the “Lipase (RFU)” value rises from 1040.338 RFU to 1150.168 RFU.

Going from `C1CSCSC1` [1,3-Dithiane] to `Cl.Cl.NCCCCN` [1,4-Diaminobutane (dihydrochloride)], the “Lipase (RFU)” value falls from 1179.502 RFU to 865.534 RFU.

Going from `CC(=O)C(=O)c1ccccc1` [1-Phenylpropane-1,2-dione] to `COC1=CC(=O)C=C(OC)C1=O` [2,6-Dimethoxy-1,4-benzoquinone], the “Lipase (RFU)” value falls from 1078.742 RFU to 934.6959 RFU.

First: O=C1c2ccccc2C(=O)c2cc(CO)ccc21 [2-(Hydroxymethyl)anthraquinone]
Second: NC(=O)NCCCC(N)C(=O)O (centres unmarked) [2-Amino-5-ureidopentanoic acid]
The “Lipase (RFU)” value of the first is lower: 723.6408 RFU for the first, 983.9261 RFU for the second.

First: NCCO [2-Aminoethanol]
Second: NCCP(=O)(O)O [2-Aminoethyl Phosphonic Acid]
The “Lipase (RFU)” value of the first is lower: 533.8 RFU for the first, 863.4665 RFU for the second.

Going from `CC(=O)c1ccccc1N` [2′-Aminoacetophenone] to `Nc1ncnc2c1ncn2[C@H]1C[C@H](O)[C@@H](CO)O1.O` [2′-Deoxyadenosine monohydrate], the “Lipase (RFU)” value falls from 970.2571 RFU to 945.7798 RFU.

Going from `Nc1nc2c(ncn2[C@H]2C[C@H](O)[C@@H](CO)O2)c(=O)[nH]1.O` [2′-Deoxyguanosine monohydrate] to `COc1cc(C(=O)O)cc(OC)c1OC` [3,4,5-Trimethoxybenzoic acid], the “Lipase (RFU)” value rises from 782.4513 RFU to 1121.402 RFU.

Compared with `COc1cc(C=CC(=O)O)cc(OC)c1OC` [3,4,5-Trimethoxycinnamic acid], `O=C(/C=C/c1ccc(O)c(O)c1)O[C@H]1[C@H](O)C[C@](O)(C(=O)O)C[C@H]1OC(=O)/C=C/c1ccc(O)c(O)c1` [3,4-Dicaffeoylquinic acid] is lower in “Lipase (RFU)” value: 1076.789 RFU for the first, 721.4239 RFU for the second.

Going from `CC(=O)O[C@@H]1CC[C@@]2(C)[C@@H](CC[C@]3(C)[C@@H]2CC=C2[C@@H]4[C@@H](C)[C@H](C)CC[C@]4(C)CC[C@]23C)[C@@]1(C)C(=O)O` [3-Acetyl-beta-boswellic acid] to `CCCC=C1OC(=O)c2ccccc21` [3-Butylidenephthalide], the “Lipase (RFU)” value rises from 752.9436 RFU to 952.6722 RFU.

Compared with `CC1(C)CC[C@]2(C(=O)O)CC[C@]3(C)C(=CC[C@@H]4[C@@]5(C)CC[C@@H](O)C(C)(C)[C@@H]5CC[C@]43C)[C@@H]2C1` [3-Epioleanolic acid], `C[C@H]1[C@H](C)CC[C@]2(C(=O)O)CC[C@]3(C)C(=CC[C@@H]4[C@@]5(C)CC[C@H](O)C(C)(C)[C@@H]5CC[C@]43C)[C@H]12` [3-Epiursolic Acid] is lower in “Lipase (RFU)” value: 1064.911 RFU for the first, 968.3096 RFU for the second.

First: COc1cc(CCN)ccc1O.Cl [3-Methoxytyramine (hydrochloride)]
Second: COc1ccc(-c2cc(=O)c3c(OC)c(OC)c(OC)c(OC)c3o2)cc1O [3′-Demethylnobiletin]
The “Lipase (RFU)” value of the first is higher: 963.841 RFU for the first, 794.5882 RFU for the second.

Going from `O=C(C=Cc1ccc(O)c(O)c1)OC1CC(O)(C(=O)O)CC(O)C1OC(=O)C=Cc1ccc(O)c(O)c1` (centres unmarked) [4,5-Dicaffeoylquinic acid] to `CC(=O)c1ccc(O)cc1` [4-Hydroxyacetophenone], the “Lipase (RFU)” value falls from 1065.884 RFU to 724.0191 RFU.

Compared with `N#CCc1ccc(O)cc1` [4-Hydroxybenzyl cyanide], `COc1cc(OC)c2c(=O)cc(-c3ccc(OC)c(OC)c3)oc2c1` [5,7,3′,4′-Tetramethoxyflavone] is lower in “Lipase (RFU)” value: 1050.204 RFU for the first, 1023.427 RFU for the second.

Going from `Cl.NCC(=O)CCC(=O)O` [5-Aminolevulinic acid (hydrochloride)] to `COc1ccc(-c2cc(=O)c3c(O)c(OC)c(OC)cc3o2)cc1OC` [5-Desmethylsinensetin], the “Lipase (RFU)” value rises from 643.3591 RFU to 571020.7 RFU.

Going from `OCCc1c[nH]c2ccc(O)cc12` [5-Hydroxytryptophol] to `O=C(CO)[C@@H](O)[C@H](O)[C@@H](O)C(=O)O` [5-Keto-D-Gluconic Acid], the “Lipase (RFU)” value rises from 681.6533 RFU to 922.1469 RFU.

Compared with `COc1ccc2[nH]cc(CCO)c2c1` [5-Methoxytryptophol], `O=C(C=Cc1ccc(O)c(O)c1)OC1CC(C(=O)O)=CC(O)C1O` (centres unmarked) [5-O-Caffeoylshikimic acid] is higher in “Lipase (RFU)” value: 1031.531 RFU for the first, 1072.132 RFU for the second.

Going from `CC(=O)[C@H]1CC[C@H]2[C@@H]3CC[C@H]4CC(=O)CC[C@]4(C)[C@H]3CC[C@]12C` [5a-Pregnane-3,20-dione] to `Nc1nc2c(ncn2[C@@H]2O[C@H](COP(=O)([O-])[O-])[C@@H](O)[C@H]2O)c(=O)[nH]1.[Na+].[Na+]` [5′-Guanylic acid (disodium salt)], the “Lipase (RFU)” value falls from 1117.705 RFU to 910.9839 RFU.

Going from `COc1ccc(-c2cc(=O)c3c(OC)cc(OC)c(OC)c3o2)cc1` [6-Demethoxytangeretin] to `O=c1cc(-c2ccc(O)c(O)c2)oc2cc(O[C@@H]3O[C@H](CO)[C@@H](O)[C@H](O)[C@H]3O)c(O)c(O)c12` [6-Hydroxyluteolin 7-glucoside], the “Lipase (RFU)” value rises from 818.2248 RFU to 1135.118 RFU.

Compared with `O=C(O)c1ccc(O)nc1` [6-Hydroxynicotinic acid], `C[C@H](O)[C@H](O)C1=Nc2c(nc(N)[nH]c2=O)NC1` [7,8-Dihydro-L-biopterin] is higher in “Lipase (RFU)” value: 655.7069 RFU for the first, 1090.909 RFU for the second.

Compared with `C[C@H](CCC(=O)O)[C@H]1CC[C@H]2[C@@H]3C(=O)C[C@@H]4C[C@H](O)CC[C@]4(C)[C@H]3CC[C@]12C` [7-Ketolithocholic acid], `C[C@H](CCC(=O)O)[C@H]1CC[C@H]2[C@@H]3C(=O)C[C@@H]4C[C@H](O)CC[C@]4(C)[C@H]3C[C@H](O)[C@]12C` [7-keto-Deoxycholic acid] is lower in “Lipase (RFU)” value: 991.8245 RFU for the first, 890.8412 RFU for the second.

Compared with `CC(C)CCC[C@@H](C)[C@H]1CC[C@H]2C3=C(CC[C@]12C)[C@@]1(C)CC[C@H](O)CC1=CC3` [8-Dehydrocholesterol], `C[C@]12CCC(=O)C=C1CC[C@@H]1[C@@H]2[C@@H](O)C[C@]2(C)C(=O)CC[C@@H]12` [11-Beta-hydroxyandrostenedione] is higher in “Lipase (RFU)” value: 707.3733 RFU for the first, 1190.299 RFU for the second.

Compared with `O=C(O)CCCCCCCCCCCO` [12-Hydroxydodecanoic acid], `C[C@H](CCC(=O)O)[C@H]1CC[C@H]2[C@@H]3CC[C@@H]4CC(O)CC[C@]4(C)[C@H]3CC(=O)[C@]12C` (some centres unmarked) [12-Ketodeoxycholic acid] is lower in “Lipase (RFU)” value: 778.3097 RFU for the first, 778.2255 RFU for the second.

With `CC(=O)[C@@]1(O)CC[C@H]2[C@@H]3CCC4=CC(=O)CC[C@]4(C)[C@H]3CC[C@@]21C` [17α-Hydroxyprogesterone] the “Lipase (RFU)” value was 867.6703 RFU.

For `C[N+](C)(C)CC(O)CC(=O)[O-]` (racemic) [D,L-Carnitine], the “Lipase (RFU)” value was 1067.602 RFU and 1032.196 RFU.
With `COc1ccccc1OC` [1,2-Dimethoxybenzene] the “Lipase (RFU)” value was 1094.378 RFU and 752.9866 RFU.
For `CC(C)C12CCC(C)(CC1)O2` [1,4-Cineole], the “Lipase (RFU)” value was 770.6625 RFU and 1018.049 RFU.
With `COc1ccccc1C(=O)O` [2-Methoxybenzoic acid] the “Lipase (RFU)” value was 739.8823 RFU and 1090.701 RFU.
